{"source": "patent US7351737B2", "about": "“4-[(8-substituted)-6-chromanoyl]-and 4-[8-substituted)-chroman-6-YL-ethynyl]-benzoic and phenylacetic acids, their esters and salts having cytochrome P450RAI inhibitory activity” (Allergan, Inc., priority 2002, dated 2008)", "test_system": "skin of fuzzy rats", "test": "Topical skin irritation test", "type": "in vivo, female fuzzy rats (Hsd:FUZZY-fz)", "details": "0.1% retinol alone, topical in acetone, daily Day 1-14; group average of erythema/eschar grade 0-4 (Table 2)", "description": "The topical retinoid all-trans-retinoic acid (ATRA) and oral retinoids such as 13-cis RA and etretinate are known to induce substantial skin irritation in humans. This irritation is a direct result of activation of the RAR nuclear receptors. Analysis of retinoid topical irritation is also a highly reproducable method of determining in vivo retinoid potency. The female fuzzy rats provide a convenient animal model of topical irritation, since retinoid-induced skin flaking and abrasion can be readily scored by eye, while their larger size than those of mice also allows multiple sampling of serum for clinical analyses. Topical application of P450RAI inhibitors should cause an increase in the endogenous levels of ATRA that would result in ATRA-induced irritation in skin of hairless mice. In these tests female fuzzy rats ((Hsd:FUZZY-fz), 6-7 weeks old, were obtained from Harlan Sprague-Dawley (Indianapolis, Ind.). The animals were about 8-9 weeks old at the start of the experiments. Food (Purina Rodent Chow 5001) and water purified by reverse osmosis were provided ad libitum. The rats were housed individually throughout the dosing period. Test chemicals were dissolved in acetone (vehicle) for application to the backs of the rats. Two days prior to actual administration of the test compounds, rats were handled daily and dosed with vehicle at a volume of 0.5 ml/kg. Starting on Day 1 thought Day 14 (dosing period), animals were dosed with the vehicle or compound(s) according to their group assignment. The rats in the tests were observed daily and the dorsal skin was graded for the degree of erythema/eschar and overall appearance. The scoring was in accordance with Table 2, below. [table] Daily group average was calculated by dividing the sum of the individual grade by the number of animals in each treatment group. The attached data in Table 3 indicates the retinoid-mimetic effects of some P450RAI inhibitors on the skin of fuzzy rats in the above described tests and in accordance with the above-indicated scoring.", "data": [{"smiles": "CC1=C(/C=C/C(C)=C/C=C/C(C)=C/CO)C(C)(C)CCC1", "note": "[retinol, reference compound]", "values": [{"measurement": "Irritation Score on day 14", "result": 1}]}]}
